These results are taken from EP0165492B1, “Process for manufacturing preparations promoting wound healing, and such preparations” (BERLIN-CHEMIE Aktiengesellschaft, priority 1984, dated 1992).

The subject of one experiment is Kapillaren. Particulars: conclusion from morphometry (Tables 11 and 12); controls = 100 %. From the text:
Mit Hilfe des Punktzählverfahrens (BUNTROCK et al: Exper. Pathol. 21 (1982) 62-67) wurden die prozentualen Volumenanteile der Kapillaren (VVCAP), unterteilt nach Endothelzellen (VVEC), Endothelzellkerne (VVNEC), Endothelsellzytoplasma (VVCYT) einerseits und Kapillarlumen (VVCAPL) andererseits bestimmt. Die Kontrollen wurden wiederum mit 100 % festgelegt.
Die Ergebnisse sind in der Tabelle 12 dargestellt.

In a further experiment the test system is Endothelzellen. The settings on record: versus rats treated with isotonic saline (= 100 %); treatment as in Example 1.
Experiment [1] concerns experimentell gesetzte Wunden. The settings on record: intraperitoneal, 20 mg/kg Ratte; cited from earlier work.
For experiment [2], the system named is durch Zahnextraktion entstandene Wunden. Particulars: local application (Salbe, Lutschtabletten); cited from earlier work.

Description for Endothelzellen: Unter die Rückenhaut von 2 Monate alten Ratten mit einem Körpergewicht von 220 bis 270 g werden Polyvinylringe mit einem Basisdurchmesser von 19 mm unter sterilen Kautelen implantiert (Test nach RUDAS, modifiziert nach BECK, WIEGERS-HAUSEN und JUNG, Acta bio. med. Germ. 13, (1964)).
Der Ring liegt auf der Fascis der Rückenmuskulatur. Am Operationstag werden je 1,0 ml sterile, isotone Kochsalzlösung (Kontrolle) bzw. die gleiche Menge an Kochsalzlösung mit den darin enthaltenen Wirkstoffen appliziert. Die Wunde der Rückenhaut über dem Ring wird danach verschlossen. Am 2. bzw. am 2., 4. und 6. Tag post operationem (p. op.) erfolgen nochmalige Injektionen durch die Haut in den Ring, wobei jeweils 0,2 ml sterile, isotone Kochsalzlösung mit jeweils 20 % der am Operationstag gegebenen Wirkstoffmenge appliziert werden. Im Fall der Kontrolle erfolgt eine Injektion von 0,2 ml Kochsalzlösung ohne Wirkstoff.
Als Kontrolltiere dienten mit isotoner Kochsalzlösung behandelte Ratten, deren Zählwerte gleich 100 % gesetzt wurden. […] Das Vorgehen der Behandlung entspricht dem Beispiel 1.

Regarding “N-4-Nitrobenzylocarbonyl-lysyl-Prolin-Hydrochlorid [Lys[Z(NO2)]-Pro·HCl]”, in the experiment with Kapillaren, the “Angiogenese fördernde Wirkung” value is recorded as “Angiogenese fördernde Wirkung”. For the same substance, the “Anzahl der Endothelzellkerne der Kapillaren” value in the experiment on Endothelzellen is “signifikante Zunahme”.
For the substance ß-Alanyl-L-Histidin [L-Carnosin], the Wundheilung result in experiment [1] and in experiment [2] was “günstig beeinflussen” each time.
